ChEMBL document CHEMBL4152300, “Discovery of the selective and efficacious inhibitors of FLT3 mutations” (Eur J Med Chem, 2018)
Values belong to the compound of their own block, whether it stands above or below them.

Tests used:
MV4-11 = test: Growth inhibition of human MV4-11 cells harboring FLT3-ITD after 72 hrs by Cell-Titer Glo assay; format: functional, cell-based; settings: MV4-11, 72 h
[1] = molecular target: T1, Cyclin-dependent kinase 6 (Homo sapiens, UniProt Q00534); test: Inhibition of CDK6 (unknown origin) assessed as residual activity at 0.123 uM by Hotspot assay relative to control
[2] = molecular target: T2, CDK2 (cyclin-dependent kinase 2) (Homo sapiens, UniProt P24941); test: Inhibition of CDK2 (unknown origin) assessed as residual activity at 0.123 uM by Hotspot assay relative to control; settings: CDK2 enzyme (unknown origin), read-out: Activity
[3] = molecular target: T3, Receptor-type tyrosine-protein kinase FLT3 (Homo sapiens, UniProt P36888)
T3 sequence (P36888 whole entry): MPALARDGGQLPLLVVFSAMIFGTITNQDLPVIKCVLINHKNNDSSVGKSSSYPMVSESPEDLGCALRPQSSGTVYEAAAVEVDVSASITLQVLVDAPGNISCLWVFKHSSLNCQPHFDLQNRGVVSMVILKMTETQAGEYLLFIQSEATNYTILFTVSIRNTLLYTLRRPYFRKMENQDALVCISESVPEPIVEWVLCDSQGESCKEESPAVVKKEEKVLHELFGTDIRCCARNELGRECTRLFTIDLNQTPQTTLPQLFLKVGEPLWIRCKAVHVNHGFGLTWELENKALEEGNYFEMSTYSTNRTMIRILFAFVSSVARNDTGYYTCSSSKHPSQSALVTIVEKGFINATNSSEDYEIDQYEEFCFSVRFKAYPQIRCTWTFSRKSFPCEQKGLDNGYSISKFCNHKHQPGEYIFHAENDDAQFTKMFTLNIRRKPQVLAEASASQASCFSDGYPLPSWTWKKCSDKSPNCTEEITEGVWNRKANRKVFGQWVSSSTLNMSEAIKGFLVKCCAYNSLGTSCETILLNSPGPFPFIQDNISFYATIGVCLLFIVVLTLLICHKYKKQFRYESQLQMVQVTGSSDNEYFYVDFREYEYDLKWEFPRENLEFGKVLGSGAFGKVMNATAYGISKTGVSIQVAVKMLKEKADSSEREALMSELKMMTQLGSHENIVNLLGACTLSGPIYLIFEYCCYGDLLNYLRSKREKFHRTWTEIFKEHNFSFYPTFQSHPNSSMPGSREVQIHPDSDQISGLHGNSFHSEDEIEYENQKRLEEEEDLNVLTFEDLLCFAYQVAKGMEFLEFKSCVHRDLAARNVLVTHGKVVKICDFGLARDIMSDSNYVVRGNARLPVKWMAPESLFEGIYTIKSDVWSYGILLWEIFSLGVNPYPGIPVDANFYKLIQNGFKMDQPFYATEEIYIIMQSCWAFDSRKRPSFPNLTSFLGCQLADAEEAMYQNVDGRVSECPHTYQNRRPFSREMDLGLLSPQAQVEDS
Description: Inhibition of human FLT3 by Hotspot assay

[4] = molecular target: T4, Receptor-type tyrosine-protein kinase FLT3 (Homo sapiens, UniProt P36888); test: Inhibition of human FLT3 assessed as residual activity at 0.123 uM by Hotspot assay relative to control
[5] = Intrinsic clearance in human liver microsomes preincubated for 5 mins followed by NADPH addition by LC-MS/MS analysis; format: ADME, microsome; settings: read-out: CLH
[6] = molecular target: Mitogen-activated protein kinase 15 (Homo sapiens, UniProt Q8TD08); test: Inhibition of human ERK7 at 0.123 uM by Hotspot assay
K562 = test: Growth inhibition of FLT3 null human K562 cells after 72 hrs by Cell-Titer Glo assay; format: functional, cell-based; settings: K562, 72 h
[7] = molecular target: Cyclin-dependent kinase 4/cyclin D1 (Homo sapiens, UniProt P11802); test: Inhibition of human CDK4/Cyclin-D1 at 0.123 uM by Hotspot assay; format: protein-complex assay
[8] = molecular target: Vascular endothelial growth factor receptor 3 (Homo sapiens, UniProt P35916); test: Inhibition of human FLT4 by Hotspot assay
[9] = molecular target: T4, Receptor-type tyrosine-protein kinase FLT3; test: Inhibition of human FLT3 F594_R595insR mutant by Hotspot assay
[10] = molecular target: T4, Receptor-type tyrosine-protein kinase FLT3; test: Inhibition of human FLT3 Y591-V592 mutant by Hotspot assay
CDK6/cyclin D1 = CDK6/cyclin D1 (Homo sapiens, UniProt Q00534); test: Inhibition of human CDK6/Cyclin-D1 at 0.123 uM by Hotspot assay; format: protein-complex assay
[11] = molecular target: T1, Cyclin-dependent kinase 6; test: Inhibition of CDK6 (unknown origin) by Hotspot assay
[12] = molecular target: T5, Receptor-type tyrosine-protein kinase FLT3 (Homo sapiens, UniProt P36888, D835Y); test: Binding affinity to human FLT3 D835Y mutant (Q580 to Y969 residues) expressed in bacterial expression system by Kinomescan method
[13] = molecular target: T6, Receptor-type tyrosine-protein kinase FLT3 (Homo sapiens, UniProt P36888, ITD); test: Inhibition of human FLT3 ITD-NPOS mutant by Hotspot assay
[14] = molecular target: T5, Receptor-type tyrosine-protein kinase FLT3; test: Inhibition of human FLT3 D835Y mutant by Hotspot assay
[15] = Drug uptake in human liver microsomes up to 60 mins by LC-MS/MS analysis; format: ADME, microsome; settings: 1 h
[16] = molecular target: T2, CDK2 (cyclin-dependent kinase 2); test: Inhibition of CDK2 (unknown origin) at 0.123 uM by Hotspot assay relative to control; settings: CDK2 enzyme (unknown origin)
MOLM-13 = test: Growth inhibition of human MOLM13 cells harboring FLT3-ITD after 72 hrs by Cell-Titer Glo assay; format: functional, cell-based; settings: MOLM-13, 72 h
[17] = molecular target: T1, Cyclin-dependent kinase 6; test: Inhibition of CDK6 (unknown origin) at 0.123 uM by Hotspot assay relative to control
[18] = molecular target: T4, Receptor-type tyrosine-protein kinase FLT3; test: Inhibition of human FLT3 R595_E596 mutant by Hotspot assay
CDK2/Cyclin A2 = CDK2/Cyclin A2 (Homo sapiens, UniProt P24941); test: Inhibition of human CDK2/Cyclin-A at 0.123 uM by Hotspot assay; format: protein-complex assay
[19] = Half life in human liver microsomes preincubated for 5 mins followed by NADPH addition by LC-MS/MS analysis; format: ADME, microsome
HL-60 = test: Growth inhibition of human HL60 cells expressing low levels of FLT3 after 72 hrs by Cell-Titer Glo assay; format: functional, cell-based; settings: HL-60, 72 h
[20] = molecular target: T6, Receptor-type tyrosine-protein kinase FLT3; test: Inhibition of human FLT3 ITD-W51 mutant by Hotspot assay
[21] = molecular target: Receptor-type tyrosine-protein kinase FLT3 (Homo sapiens, UniProt P36888, F691L/ITD); test: Binding affinity to human FLT3 ITD/F691L double mutant expressed in bacterial expression system by Kinomescan method
[22] = molecular target: Receptor-type tyrosine-protein kinase FLT3 (Homo sapiens, UniProt P36888, D835V/ITD); test: Binding affinity to human FLT3 ITD/D835V double mutant expressed in bacterial expression system by Kinomescan method
[23] = molecular target: T4, Receptor-type tyrosine-protein kinase FLT3; test: Inhibition of human FLT3 F594_R595insREY mutant by Hotspot assay
[24] = molecular target: Cyclin-dependent kinase 2 (Homo sapiens, UniProt P24941); test: Inhibition of CDK2 (unknown origin) by Hotspot assay
Homo sapiens [25] = species: Homo sapiens; test: Selectivity ratio of IC50 for CDK2 (unknown origin) to IC50 for human FLT3
Homo sapiens [26] = species: Homo sapiens; test: Selectivity ratio of IC50 for CDK6 (unknown origin) to IC50 for human FLT3

T1 sequence (Q00534 whole entry): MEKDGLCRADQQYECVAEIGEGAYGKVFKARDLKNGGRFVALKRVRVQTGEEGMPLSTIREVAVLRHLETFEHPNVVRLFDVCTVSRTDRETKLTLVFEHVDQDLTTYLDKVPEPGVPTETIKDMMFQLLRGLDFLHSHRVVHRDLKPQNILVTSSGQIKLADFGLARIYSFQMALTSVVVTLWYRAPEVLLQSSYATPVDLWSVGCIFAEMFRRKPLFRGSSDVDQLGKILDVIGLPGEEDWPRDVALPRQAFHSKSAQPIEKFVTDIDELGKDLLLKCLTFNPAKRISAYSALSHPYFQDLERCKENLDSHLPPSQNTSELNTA
Sequence of Mitogen-activated protein kinase 15 (Q8TD08 whole entry): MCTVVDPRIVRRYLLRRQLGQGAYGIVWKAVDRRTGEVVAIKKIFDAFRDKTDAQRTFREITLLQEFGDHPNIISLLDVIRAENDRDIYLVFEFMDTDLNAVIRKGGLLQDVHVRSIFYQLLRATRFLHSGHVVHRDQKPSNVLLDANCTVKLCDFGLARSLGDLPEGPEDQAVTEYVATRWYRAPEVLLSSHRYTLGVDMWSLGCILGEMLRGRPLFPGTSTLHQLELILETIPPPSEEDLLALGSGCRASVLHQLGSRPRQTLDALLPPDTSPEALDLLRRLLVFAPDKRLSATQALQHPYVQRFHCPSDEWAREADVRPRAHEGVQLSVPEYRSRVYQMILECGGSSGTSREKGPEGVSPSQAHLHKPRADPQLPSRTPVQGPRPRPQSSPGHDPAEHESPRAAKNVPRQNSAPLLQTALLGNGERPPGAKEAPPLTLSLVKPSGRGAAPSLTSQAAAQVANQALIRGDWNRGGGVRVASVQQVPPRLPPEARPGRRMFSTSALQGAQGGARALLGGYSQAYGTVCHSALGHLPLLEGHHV
Sequence of CDK6/cyclin D1 (P24385 whole entry): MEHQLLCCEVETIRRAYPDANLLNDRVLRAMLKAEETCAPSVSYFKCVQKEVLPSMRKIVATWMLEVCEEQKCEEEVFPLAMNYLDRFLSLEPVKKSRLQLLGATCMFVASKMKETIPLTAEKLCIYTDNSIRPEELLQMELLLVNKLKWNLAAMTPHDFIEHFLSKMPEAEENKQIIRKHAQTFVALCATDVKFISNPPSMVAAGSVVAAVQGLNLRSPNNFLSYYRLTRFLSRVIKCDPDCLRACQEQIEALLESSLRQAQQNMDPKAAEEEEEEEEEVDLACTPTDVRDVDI
Sequence of CDK6/cyclin D1 (Q00534 whole entry): as the sequence (Q00534 whole entry) above
Sequence of Cyclin-dependent kinase 4/cyclin D1 (P11802 whole entry): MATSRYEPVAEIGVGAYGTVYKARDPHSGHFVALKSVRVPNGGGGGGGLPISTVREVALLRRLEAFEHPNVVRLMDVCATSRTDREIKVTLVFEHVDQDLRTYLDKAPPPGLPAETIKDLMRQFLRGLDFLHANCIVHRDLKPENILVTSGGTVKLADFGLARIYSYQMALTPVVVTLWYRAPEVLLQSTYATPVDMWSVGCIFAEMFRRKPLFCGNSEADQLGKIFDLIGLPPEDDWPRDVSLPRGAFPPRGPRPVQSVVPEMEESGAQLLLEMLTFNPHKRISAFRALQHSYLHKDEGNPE
Sequence of Cyclin-dependent kinase 4/cyclin D1 (P24385 whole entry, further chain): as the sequence (P24385 whole entry) above
Sequence of Vascular endothelial growth factor receptor 3 (P35916 whole entry): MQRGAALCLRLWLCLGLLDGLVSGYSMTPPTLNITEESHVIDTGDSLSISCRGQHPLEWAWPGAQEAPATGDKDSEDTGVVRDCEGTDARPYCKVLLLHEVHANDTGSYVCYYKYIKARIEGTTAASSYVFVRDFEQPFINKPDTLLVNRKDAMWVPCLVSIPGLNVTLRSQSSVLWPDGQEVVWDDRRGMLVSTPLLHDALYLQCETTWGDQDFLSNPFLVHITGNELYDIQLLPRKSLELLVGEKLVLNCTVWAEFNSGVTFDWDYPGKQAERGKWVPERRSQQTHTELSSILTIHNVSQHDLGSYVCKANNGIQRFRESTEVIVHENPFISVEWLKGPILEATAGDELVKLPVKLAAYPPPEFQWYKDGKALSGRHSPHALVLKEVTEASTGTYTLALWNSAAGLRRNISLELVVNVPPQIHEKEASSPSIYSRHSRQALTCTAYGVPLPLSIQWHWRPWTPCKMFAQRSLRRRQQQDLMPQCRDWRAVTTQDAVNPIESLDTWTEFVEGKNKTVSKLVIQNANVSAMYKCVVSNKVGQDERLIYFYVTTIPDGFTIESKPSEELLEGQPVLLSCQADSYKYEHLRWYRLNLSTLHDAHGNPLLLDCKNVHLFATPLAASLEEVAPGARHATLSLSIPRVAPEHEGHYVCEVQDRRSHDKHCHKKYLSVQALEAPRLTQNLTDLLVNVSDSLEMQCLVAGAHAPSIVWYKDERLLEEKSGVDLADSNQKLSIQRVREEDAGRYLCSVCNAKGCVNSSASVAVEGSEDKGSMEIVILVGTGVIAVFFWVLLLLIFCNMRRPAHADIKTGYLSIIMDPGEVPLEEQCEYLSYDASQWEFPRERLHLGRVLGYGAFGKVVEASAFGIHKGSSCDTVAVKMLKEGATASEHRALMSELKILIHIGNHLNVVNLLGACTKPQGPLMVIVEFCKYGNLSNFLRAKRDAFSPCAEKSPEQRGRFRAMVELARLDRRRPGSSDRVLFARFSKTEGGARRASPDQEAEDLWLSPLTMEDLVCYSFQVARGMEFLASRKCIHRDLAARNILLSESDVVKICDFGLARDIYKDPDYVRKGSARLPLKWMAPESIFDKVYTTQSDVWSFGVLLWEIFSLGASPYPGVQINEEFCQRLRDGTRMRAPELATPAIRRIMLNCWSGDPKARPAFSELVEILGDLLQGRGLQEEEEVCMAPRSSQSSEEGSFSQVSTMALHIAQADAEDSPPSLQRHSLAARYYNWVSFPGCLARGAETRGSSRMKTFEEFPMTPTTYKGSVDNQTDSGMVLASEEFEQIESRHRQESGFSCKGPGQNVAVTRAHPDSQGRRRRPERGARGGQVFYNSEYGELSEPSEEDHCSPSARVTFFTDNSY

SMILES: CN1CCN(Cc2ccc(NC(=O)c3nn(C)cc3Nc3ncnc4[nH]ccc34)cc2)CC1
Activity [1]: 99.3%
activity at 0.123 µM [2]: 98.5%
Activity [4]: 87.6%

SMILES: CN1CCN(Cc2ccc(NC(=O)c3n[nH]cc3Nc3ncnc4sccc34)cc2)CC1
microsomal CLint [5]: 13.6 µL/min/mg
IC50 [6]: < 10 nM
IC50 (K562): 235 nM
IC50 [7]: < 10 nM
IC50 [8]: 4.5 nM
IC50 (MV4-11): 16 nM
IC50 [9]: 1.23 nM
IC50 [10]: 13.2 nM
IC50 (CDK6/cyclin D1): < 10 nM
IC50 [11]: 3.33 nM
Kd [12]: 7.01 nM
IC50 [13]: 17.5 nM
IC50 [14]: 0.54 nM
Drug uptake [15]: 29.7%
inhibition at 0.123 µM [16]: > 80%
IC50 (MOLM-13): 39 nM
inhibition [17]: > 80%
IC50 [18]: 2.67 nM
IC50 (CDK2/Cyclin A2): < 10 nM
half-life [19]: 51 min
IC50 (HL-60): 334 nM
IC50 [20]: 1.85 nM
Kd [21]: 1.3 nM
Kd [22]: 0.23 nM
IC50 [23]: 7.35 nM
IC50 [3]: 0.6 nM

SMILES: Cc1nc(Nc2c[nH]nc2C(=O)Nc2ccc(CN3CCOCC3)cc2)c2cc(C(C)C)sc2n1
IC50 (MV4-11): 48 nM
IC50 [11]: 33.2 nM
inhibition at 0.123 µM [16]: > 80%
IC50 [24]: 25.4 nM
inhibition [17]: > 80%
IC50 [3]: 0.66 nM

SMILES: O=C(Nc1ccc(CN2CCOCC2)cc1)c1n[nH]cc1Nc1nc(C2CC2)nc2sccc12
IC50 (MV4-11): 78 nM
Activity [1]: 95.4%
activity at 0.123 µM [2]: 81.4%
IC50 [3]: 16.5 nM

SMILES: O=C(Nc1ccc(N2CCNCC2)cc1)c1n[nH]cc1Nc1nc(C2CC2)nc2sccc12
IC50 (MV4-11): 59 nM
Activity [1]: 88%
activity at 0.123 µM [2]: 97.4%
IC50 [3]: 2.53 nM

SMILES: Cc1nc2c(c(Nc3c[nH]nc3C(=O)Nc3ccc(N4CCNCC4)cc3)n1)CCCC2
IC50 (MV4-11): 18 nM
Activity [1]: 87.2%
activity at 0.123 µM [2]: 79.4%
IC50 [3]: 0.66 nM

SMILES: CN1CCN(Cc2ccc(NC(=O)c3n[nH]cc3Nc3nc(C4CC4)nc4sccc34)cc2)CC1
IC50 (MV4-11): 61 nM
Activity [1]: 103%
activity at 0.123 µM [2]: 89.8%
IC50 [3]: 15.7 nM

SMILES: Cc1[nH]nc(C(=O)Nc2ccc(CN3CCN(C)CC3)cc2)c1Nc1ncnc2sccc12
Activity [1]: 96.2%
activity at 0.123 µM [2]: 99.7%
Activity [4]: 98.5%

SMILES: Cc1nc(Nc2c[nH]nc2C(=O)Nc2ccc(CN3CCN(C)CC3)cc2)c2ccsc2n1
Ratio IC50 (Homo sapiens [25]): 100
IC50 (MV4-11): 52 nM
Activity [1]: 72.1%
Ratio IC50 (Homo sapiens [26]): 100
activity at 0.123 µM [2]: 51.1%
IC50 [3]: 0.65 nM

SMILES: Cc1[nH]nc(C(=O)Nc2ccc(CN3CCN(C)CC3)cc2)c1Nc1ncnc2[nH]ccc12
Activity [1]: 95.7%
activity at 0.123 µM [2]: 99.9%
Activity [4]: 98.5%

SMILES: Cc1nc(Nc2c[nH]nc2C(=O)Nc2ccc(CN3CCN(C)CC3)cc2)c2cc(C(C)C)sc2n1
IC50 (MV4-11): 65 nM
IC50 [11]: 19.2 nM
inhibition at 0.123 µM [16]: > 80%
IC50 [24]: 21.5 nM
inhibition [17]: > 80%
IC50 [3]: 0.73 nM

Further lines, results first:

IC50 (MV4-11): 27 nM
Activity [1]: 72.7%
activity at 0.123 µM [2]: 71.2%
IC50 [3]: 0.95 nM
SMILES: Cc1nc(Nc2c[nH]nc2C(=O)Nc2ccc(N3CCN(C)CC3)cc2)c2ccsc2n1

IC50 (MV4-11): 98 nM
Activity [1]: 99.2%
activity at 0.123 µM [2]: 100%
IC50 [3]: 20.5 nM
SMILES: CC(C)(C)c1nc(Nc2c[nH]nc2C(=O)Nc2ccc(N3CCNCC3)cc2)c2ccsc2n1

IC50 (MV4-11): 57 nM
Activity [1]: 93.5%
activity at 0.123 µM [2]: 101%
IC50 [3]: 11.3 nM
SMILES: CC(C)c1nc(Nc2c[nH]nc2C(=O)Nc2ccc(N3CCNCC3)cc2)c2ccsc2n1

Ratio IC50 (Homo sapiens [25]): 131
IC50 (MV4-11): 19 nM
IC50 [11]: 84.3 nM
inhibition at 0.123 µM [16]: > 80%
IC50 [24]: 81.5 nM
inhibition [17]: > 80%
Ratio IC50 (Homo sapiens [26]): 131
IC50 [3]: 0.62 nM
SMILES: Cc1nc(Nc2c[nH]nc2C(=O)Nc2ccc(N3CCNCC3)cc2)c2ccsc2n1

IC50 (MV4-11): 65 nM
Activity [1]: 87%
activity at 0.123 µM [2]: 86.6%
IC50 [3]: 3.42 nM
SMILES: CCc1nc(Nc2c[nH]nc2C(=O)Nc2ccc(N3CCNCC3)cc2)c2ccsc2n1

IC50 (MV4-11): 62 nM
Activity [1]: 79.7%
activity at 0.123 µM [2]: 52%
IC50 [3]: 3.63 nM
SMILES: Cc1nc(Nc2c[nH]nc2C(=O)Nc2ccc(CN3CCOCC3)cc2)c2ccsc2n1

IC50 (MV4-11): 33 nM
Activity [1]: 83.1%
activity at 0.123 µM [2]: 78.8%
IC50 [3]: 3.8 nM
SMILES: Cc1nc(Nc2c[nH]nc2C(=O)Nc2ccc(N3CCOCC3)cc2)c2ccsc2n1

IC50 (MV4-11): 26 nM
Activity [1]: 63.6%
activity at 0.123 µM [2]: 56.8%
IC50 [3]: 0.47 nM
SMILES: O=C(Nc1ccc(N2CCNCC2)cc1)c1n[nH]cc1Nc1nc(Cl)nc2sccc12
